Test in all cases: greenhouse post-emergence herbicidal test
Common to all, as to assay type: in vivo

The test system of assay [1] is AMARE (Amaranthus retroflexus). The note with it: post-emergence method, application rate 16 g/ha, scale from 0 to 100; for pest or weed control at 16 g/ha: Amaranthus retroflexus, read-out: herbicidal activity against AMARE. From the text:
(§1) The seeds of the test plants were sown separately for each species. For the post-emergence treatment, the test plants were first grown to a height of 3 to 15 cm, depending on the plant habit, and only then treated with the active ingredients which had been suspended or emulsified in water. For this purpose, the test plants were either sown directly and grown in the same containers, or they were first grown separately as seedlings and transplanted into the test containers a few days prior to treatment. Depending on the species, the plants were kept at 10-25° C. or 20-35° C., respectively. The test period extended over 2 to 4 weeks. During this time, the plants were tended, and their response to the individual treatments was evaluated. Evaluation was carried out using a scale from 0 to 100. 100 means no emergence of the plants, or complete destruction of at least the aerial moieties, and 0 means no damage, or normal course of growth. A good herbicidal activity is given at values of at least 70 and a very good herbicidal activity is given at values of at least 85. [table]

A further assay relates to SETVI (Setaria viridis). The following applies: scale from 0 to 100; for herbicidal activity against SETVI: post-emergence method, application rate 16 g/ha; for damages SETVI: post emergence control 7 days after treatment (greenhouse).
Description: as §1

Assay [2] concerns ECHCG (Echinocloa crus-galli). The note with it: post-emergence method, application rate 16 g/ha, scale from 0 to 100.
Description: as §1

The subject of assay [3] is CHEAL (Chenopodium album). The following applies: post-emergence method, application rate 16 g/ha, scale from 0 to 100.
Description: as §1

Assay [4] has as its system POLCO (Polygonum convolvulus). The note with it: post-emergence method, application rate 16 g/ha, scale from 0 to 100.
Description: as §1

Another assay deals with AVEFA (Avena fatua). The following applies: post emergence control 7 days after treatment (greenhouse), scale from 0 to 100.
Description: as §1

The subject of assay [5] is ALOMY (Alopecurus myosuroides). The following applies: post emergence control 7 days after treatment (greenhouse), scale from 0 to 100.
Description: as §1

Where only a bound is given, the exact number is not on record here.

The values that follow come from patent US12331027B2, “Herbicidal pyridylethers” (BASF SE, priority 2017, dated 2025).

For `CCOC(=O)COc1ccccc1Oc1nc(-n2nc(C)n(C(F)F)c2=O)c(F)cc1Cl` [Example 1, Ethyl 2-[2-[[3-chloro-6-[4-(difluoromethyl)-3-methyl-5-oxo-1,2,4-triazol-1-yl]-5-fluoro-2-pyridyl]oxy]phenoxy]acetate], in assay [1], the pest or weed control at 16 g/ha was at least 85%.
As to `CCOC(=O)COc1ccccc1Oc1nc(-n2nc(C(F)(F)F)n(C)c2=O)c(F)cc1C#N` [Example 2, Ethyl 2-[2-[[3-cyano-5-fluoro-6-[4-methyl-5-oxo-3-(trifluoromethyl)-1,2,4-triazol-1-yl]-2-pyridyl]oxy]phenoxy]acetate], the “herbicidal activity against SETVI” value with SETVI (Setaria viridis) is listed as “very good (a very good herbicidal activity is given at values of at least 85)”. The pest or weed control at 16 g/ha in assay [1] was at least 85%. For the same compound, the “herbicidal activity against ECHCG” value in assay [2] was “very good (a very good herbicidal activity is given at values of at least 85)”.
Regarding `CCOC(=O)COc1ccccc1Oc1nc(-n2nc(C(F)(F)F)n(C)c2=O)c(F)cc1C(N)=S` [Example 3, Ethyl 2-[2-[[3-carbamothioyl-5-fluoro-6-[4-methyl-5-oxo-3-(trifluoromethyl)-1,2,4-triazol-1-yl]-2-pyridyl]oxy]phenoxy]acetate], the pest or weed control at 16 g/ha in assay [1] is at least 70%.
Still for that read-out and setting: as for `CCOC(=O)COc1ccccc1Oc1nc(-n2nc3n(c2=O)CCCC3)c(Cl)cc1Cl` [Example 4, Ethyl 2-[2-[[3,5-dichloro-6-(3-oxo-5,6,7,8-tetrahydro-[1,2,4]triazolo[4,3-a]pyridin-2-yl)-2-pyridyl]oxy]phenoxy]acetate], the figure is at least 70%.
Consider `CCOC(=O)COc1ccccc1Oc1nc(-n2nc(C(C)(C)C)oc2=O)c(Cl)cc1Cl` [Example 5, Ethyl 2-[2-[[6-(5-tert-butyl-2-oxo-1,3,4-oxadiazol-3-yl)-3,5-dichloro-2-pyridyl]oxy]phenoxy]acetate], for which the pest or weed control at 16 g/ha in assay [1] is at least 85%. The “herbicidal activity against CHEAL” value in assay [3] is on record as “very good (a very good herbicidal activity is given at values of at least 85)”.
In the case of `CCOC(=O)COc1ccccc1Oc1nc(-c2nn(C)c(OC(F)F)c2Cl)c(F)cc1Cl` [Example 6, Ethyl 2-[2-[[3-chloro-6-[4-chloro-5-(difluoromethoxy)-1-methyl-pyrazol-3-yl]-5-fluoro-2-pyridyl]oxy]phenoxy]acetate], the pest or weed control at 16 g/ha in assay [1] is at least 85%.
On the same count and under the same terms, under `CCOC(=O)COc1ncccc1Oc1nc(-n2c(=O)n(C)c(=O)n(C)c2=O)c(F)cc1Cl` [Example 7, Ethyl 2-[[3-[[3-chloro-6-(3,5-dimethyl-2,4,6-trioxo-1,3,5-triazinan-1-yl)-5-fluoro-2-pyridyl]oxy]-2-pyridyl]oxy]acetate] stands at least 70%.
The same measure, in the same setting: under `CCOC(=O)COc1ncccc1Oc1nc(-n2ncc(C(F)(F)F)c(C)c2=O)c(F)cc1Cl` [Example 8, Ethyl 2-[[3-[[3-chloro-5-fluoro-6-[5-methyl-6-oxo-4-(trifluoromethyl)pyridazin-1-yl]-2-pyridyl]oxy]-2-pyridyl]oxy]acetate] stands at least 85%.
On to `CCOC(=O)COc1ccccc1Oc1nc(-n2nc(C)n(C(F)F)c2=O)c(F)cc1F` [Example 9], for which the “herbicidal activity against SETVI” value in the assay on SETVI (Setaria viridis) is “good (A good herbicidal activity is given at values of at least 70)”. In assay [2], the “herbicidal activity against ECHCG” value is recorded as “good (A good herbicidal activity is given at values of at least 70)”. In addition, the “herbicidal activity against CHEAL” value in assay [3] is on record as “good (A good herbicidal activity is given at values of at least 70)”.
As to `CCOC(=O)COc1ncccc1Oc1nc(-n2nc(C)n(C(F)F)c2=O)c(F)cc1F` [Example 14], the “herbicidal activity against SETVI” value in the assay with SETVI (Setaria viridis) is on record as “very good (a very good herbicidal activity is given at values of at least 85)”.
In the case of `CCOC(=O)COc1ncccc1Oc1nc(-n2nc(C)n(C(F)F)c2=O)ccc1Cl` [Example 16], the “herbicidal activity against AMARE” value in assay [1] was “very good (a very good herbicidal activity is given at values of at least 85)”. Further, the “herbicidal activity against CHEAL” value in assay [3] is listed as “very good (a very good herbicidal activity is given at values of at least 85)”. Moreover, the “herbicidal activity against POLCO” value in assay [4] was “very good (a very good herbicidal activity is given at values of at least 85)”.
For `CCOC(=O)COc1ccccc1Oc1nc(-n2nc(C(F)(F)F)n(C)c2=S)c(F)cc1C#N` [Example 18], the “herbicidal activity against SETVI” value in the assay on SETVI (Setaria viridis) was “good (A good herbicidal activity is given at values of at least 70)”. Further, the “herbicidal activity against AMARE” value in assay [1] was “very good (a very good herbicidal activity is given at values of at least 85)”.
Turning to `CCOC(=O)COc1ccccc1Oc1nc(N2C(=O)OC(=C(C)C)C2=O)c(F)cc1Cl` [Example 26, Ethyl 2-[2-[[3-chloro-5-fluoro-6-(5-isopropylidene-2,4-dioxo-oxazolidin-3-yl)-2-pyridyl]oxy]phenoxy]acetate], the “herbicidal activity against SETVI” value in the assay on SETVI (Setaria viridis) is given as “very good (a very good herbicidal activity is given at values of at least 85)”. Moreover, the pest or weed control at 16 g/ha in assay [1] is at least 85%. Moreover, the “herbicidal activity against CHEAL” value in assay [3] is recorded as “very good (a very good herbicidal activity is given at values of at least 85)”. In addition, the “herbicidal activity against POLCO” value in assay [4] is “very good (a very good herbicidal activity is given at values of at least 85)”.
Consider `CCOC(=O)COc1ccccc1Oc1nc(N2C(=O)C3=C(CCCC3)C2=O)c(F)cc1Cl` [Example 27, ethyl 2-[2-[[3-chloro-6-(1,3-dioxo-4,5,6,7-tetrahydroisoindol-2-yl)-5-fluoro-2-pyridyl]oxy]phenoxy]acetate], for which the “herbicidal activity against SETVI” value with SETVI (Setaria viridis) was “very good (a very good herbicidal activity is given at values of at least 85)”. Also, the pest or weed control at 16 g/ha in assay [1] is at least 85%. In addition, the “herbicidal activity against ECHCG” value in assay [2] is “very good (a very good herbicidal activity is given at values of at least 85)”. For the same compound, the “herbicidal activity against CHEAL” value in assay [3] is “very good (a very good herbicidal activity is given at values of at least 85)”. For the same compound, in assay [4], the “herbicidal activity against POLCO” value is reported as “very good (a very good herbicidal activity is given at values of at least 85)”.
As for `COC(=O)COc1ccc(Oc2cc(-n3ncc(C(F)(F)F)c(C)c3=O)c(F)cc2Cl)cc1` [Example A2-11, reference compound], the “damages SETVI” value in the assay on SETVI (Setaria viridis) (application rate 2 g/ha) worked out at 80; in the assay with SETVI (Setaria viridis) (application rate 4 g/ha), 85. Besides, the results for the “damages AVEFA” value in the assay with AVEFA (Avena fatua) (application rate 8 g/ha) and in the assay with AVEFA (Avena fatua) (application rate 16 g/ha) were 70 and 80, respectively. The “damages ALOMY” value in assay [5] (application rate 2 g/ha) is on record as 60; in assay [5] (application rate 4 g/ha), 65.
Take `COC(=O)COc1ccc(Oc2nc(-n3ncc(C(F)(F)F)c(C)c3=O)c(F)cc2Cl)cc1` [example 28]: the entries for the “damages SETVI” value in the assay with SETVI (Setaria viridis) (application rate 2 g/ha) and with SETVI (Setaria viridis) (application rate 4 g/ha) were 90 and 95, respectively. The “damages AVEFA” value turned out to be 80 in the assay with AVEFA (Avena fatua) (application rate 8 g/ha) and 98 with AVEFA (Avena fatua) (application rate 16 g/ha). Also, the “damages ALOMY” value in assay [5] (application rate 2 g/ha) is 70; in assay [5] (application rate 4 g/ha) it was 75.
